From PMC8086144, “A novel peptide antagonist of the human growth hormone receptor” (The Journal of Biological Chemistry, 2021)

Target: T1, hPRLR (Homo sapiens, UniProt P16471)
T1 construct: T84 cells express high levels of hPRLR relative to hGHR (>1300:1); host or cells: T84 (human colon cancer), MALME-3M (human melanoma)
T1 sequence (P16471 25-622): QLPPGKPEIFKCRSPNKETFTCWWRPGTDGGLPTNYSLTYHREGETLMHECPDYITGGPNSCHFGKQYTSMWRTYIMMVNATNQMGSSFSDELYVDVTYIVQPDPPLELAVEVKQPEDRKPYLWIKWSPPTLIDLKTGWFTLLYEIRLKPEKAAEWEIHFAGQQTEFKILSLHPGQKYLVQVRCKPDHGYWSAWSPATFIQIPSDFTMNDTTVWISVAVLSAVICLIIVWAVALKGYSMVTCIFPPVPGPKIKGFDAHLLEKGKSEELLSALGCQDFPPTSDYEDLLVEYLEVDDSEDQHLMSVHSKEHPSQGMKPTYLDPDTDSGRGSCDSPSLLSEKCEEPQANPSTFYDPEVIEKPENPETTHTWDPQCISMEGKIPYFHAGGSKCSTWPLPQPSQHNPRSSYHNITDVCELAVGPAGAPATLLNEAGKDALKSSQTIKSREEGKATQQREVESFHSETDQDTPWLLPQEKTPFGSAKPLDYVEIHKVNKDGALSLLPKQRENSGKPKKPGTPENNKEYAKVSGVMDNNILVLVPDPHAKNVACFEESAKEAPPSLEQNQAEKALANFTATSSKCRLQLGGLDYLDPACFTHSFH
Assay: hPRL-induced pSTAT5 in T84 cells, Western blot
Format: cell-based
Conditions: 2.5 nM hPRL, 20 min, S1H concentration not given
Protocol: SK-MEL-28, MALME-3M, and T84 cells were grown and maintained in Eagle's Minimal Essential Medium. IM9 and L cells were grown in RPMI-1640 media and Dulbecco's modified Eagle's medium, respectively. All growth media was supplemented with 10% fetal bovine serum and 1× antibiotic-antimycotic […] solution. Cells were grown at 37 °C under a 5% CO2 atmosphere in a humidified incubator, and growth media was replaced every 48 h during incubation. No hGH was present in or added to the growth media unless specifically indicated. […]
Following treatment, the cells were harvested at the indicated time points, and the total protein was extracted. […] Sample protein concentration was quantified using a Bradford assay with bovine serum albumin as the protein standard. Absorbance at 595 nm was measured using a Spectramax 250 multimode plate reader (Molecular Devices) and processed using SoftmaxPro v4.7.1 software.
Cytosolic fractions from treated cells were thawed on ice, and 80 μg protein was loaded onto polyacrylamide gels for separation by SDS-PAGE. […] Chemiluminescence signals were detected using a GelDoc (BioRad) fluorescence imager. […]

## CC[C@H](C)[C@H](NC(=O)[C@H](Cc1ccc(O)cc1)NC(C)=O)C(=O)N1CCC[C@H]1C(=O)N[C@@H](CCCCN)C(=O)N[C@@H](CCC(=O)O)C(=O)N[C@@H](CCC(N)=O)C(=O)N[C@@H](CCCCN)C(=O)N[C@@H](Cc1ccc(O)cc1)C(=O)N[C@@H](CO)C(=O)N[C@@H](Cc1ccccc1)C(=O)N[C@@H](CC(C)C)C(=O)N[C@@H](CCC(N)=O)C(=O)N[C@@H](CC(N)=O)C(=O)N1CCC[C@H]1C(=O)N[C@@H](CCC(N)=O)C(=O)N[C@H](C(N)=O)[C@@H](C)O [S1H]
  inhibition of hPRL-induced pSTAT5: 13%
